# Where “and” joins values, the source holds several entries; their conditions need not be identical. Identical values can stand only once. Entries after “also recorded” stand apart in the source; their conditions may differ.
# Experiments:
# [1] = system: hypoxanthine guanine phosphoribosyltransferase (Hprt) gene in mouse embryonic stem (ES) cells; test: ENU-induced Hprt-inactivating mutations, 6-TG selection, Protocol 2 (24-well plates); type: cell-based
# Procedure: (§1) In the second protocol, actively growing ES cells were trypsinized and plated at two densities (1×10^5 and 0.5×10^5 cells/well) in 24-well tissue culture plates instead of T25 flasks. After a one-day preincubation period, cells were treated for 5 hours with 0.3 mg/ml or 0.4 mg/ml ENU (as described above) and subsequently treated as described in Table 2. [table]
# [2] = system: hypoxanthine guanine phosphoribosyltransferase (Hprt) gene in mouse embryonic stem (ES) cells; test: ENU-induced Hprt-inactivating mutations, 6-TG selection, Protocol 1; type: cell-based; conditions: 0.3 mg/ml ENU
# [3] = literature statement; cited from earlier work
# [4] = system: Mouse ES cells (129/Sv+Tyr, +p); test: Survival of ES cells after 5 hour ENU treatment (colony counting); type: cell-based; conditions: for survival: 5 hours, counted after 3 days of culture
# Procedure: Mouse ES cells (129/Sv+^Tyr, +^p) were used. Cells were grown in culture medium [MEM (Gibco) supplemented with 15% heat-inactivated fetal calf serum, LIF, and 10 μM β-mercaptoethanol. Cells were routinely grown on 100-mm petri dishes and cultivated at 37° C. in a humidified atmosphere of 5% CO2 in air. For subculturing, cells were disassociated with HBSS containing 0.25% trypsin and 0.02% EDTA. After a 3-minute incubation at room temperature, cells were resuspended in culture medium and cell numbers determined using a hemocytometer.
# The plating efficiency was determined by plating 2×10^3 cells per 100-mm dish, fixing the cells after 6-days with methanol, staining with 0.01% crystal violet and scoring colonies. Colonies were scored for the calculation of plating efficiency as percent of the inoculated cell number. The plating efficiencies were approximately 20%.
# In the first protocol, actively growing ES cells were trypsinized and plated at 5×10^5 cells per T25 flask and after 1 day preincubation treated for 5 hours with 0.3 mg/ml, 0.4 mg/ml or 0.5 mg/ml ENU (dissolved in medium without FCS by vigorous shaking and filter sterilization with 0.2 μm cellulose acetate filters immediately before use). Control cells and cells which had been treated with ENU were washed three times with PBS and the number of surviving cells determined after 3 days of culture in culture medium by plating 2,000 cells from control and from ENU-treated flasks and counting surviving colonies as described above. […] Surviving EA cells which had been treated with 0.3 mg/ml ENU were subcultured at 3:1 onto 60-mm petri dishes in the presence (set 1) and absence (set 2) of primary embryothic fibroblasts (PMEFs). ES cells grown on PMEFs (set 1) were cultured for 3 days, subcultured at 3:1 onto 60-mm petri dishes without PMEFs, trypsinized, plated at 4×10^5 cells per 100-mm plate without PMEFs and grown for 2 days. ES cells grown in the absence of PMEFs (set 2) were trypsinized-after 5 days in culture and plated at 4×10^5 cells per 100-mm plate without PMEFs. Cells (set 1 and set 2) were subsequently grown for 1 day prior to the addition of 10 μM 6-TG to the culture medium and further incubated for an additional 6 days in the presence of 6-TG. The number of 6-TG resistant colonies was calculated, and individual colonies were separately plated in a 96-well microtiter dish.
# as §1, with “2.” for “2. [table]”
structure (smiles),measurement,setting,value
"CCN(N=O)C(N)=O [ENU, N-ethyl-N-nitrosurea]",Total colonies,"[1]; 0.3 mg/ml ENU, Plate 1",Total: 23 colonies
same,No. colonies/plate,"[1]; 0.3 mg/ml ENU, Plate 1, day 16, individual 60-mm dishes",Plate 2: 3 colonies; also recorded: Plate 3: 5 colonies; also recorded: Plate 5: 1 colony colonies; also recorded: Plate 6: 1 colony colonies; also recorded: Plate 7: 2 colonies; also recorded: Plate 8: 2 colonies; also recorded: Plate 9: 4 colonies
same,plates that yielded colonies after 6-thioguanine,"[1]; 0.3 mg/ml ENU, Plate 1, day 16, of 24 dishes","9 plates yielded colonies,"
same,Total colonies,"[1]; 0.3 mg/ml ENU, Plate 2",Total: 12 colonies
same,No. colonies/plate,"[1]; 0.3 mg/ml ENU, Plate 2, day 16, individual 60-mm dishes",Plate 2: 1 colony colonies; also recorded: Plate 3: 2 colonies; also recorded: Plate 4: 1 colony colonies; also recorded: Plate 5: 4 colonies; also recorded: Plate 6: 2 colonies
same,plates that yielded colonies after 6-thioguanine,"[1]; 0.3 mg/ml ENU, Plate 2, day 16, of 24 dishes","6 plates yielded colonies,"
same,Mutation frequency maximum,"[1]; 0.4 mg/ml ENU, Plate 4",1/800
same,Total colonies,"[1]; 0.4 mg/ml ENU, Plate 4",Total: 22 colonies
same,No. colonies/plate,"[1]; 0.4 mg/ml ENU, Plate 4, day 17, individual 60-mm dishes",Plate 1: 14 colonies; also recorded: Plate 2: 18 colonies
same,plates that yielded colonies after 6-thioguanine,"[1]; 0.4 mg/ml ENU, Plate 4, day 17, of 24 dishes","2 plates yielded colonies, 22"
same,Total colonies (+PMEF plates),"[2]; 10 μM 6-TG, sum of 6 plates",21
same,Total colonies (−PMEF plates),"[2]; 10 μM 6-TG, sum of 6 plates",77
same,Mutation Frequency Maximum (−PMEF plates),[2]; Hprt locus,1/623
same,"No. Surviving Colonies (−PMEF plates), 6-TG selection (Hprt deficient), per plate","[2]; set 2 grown without PMEFs, 10 μM 6-TG, plates 1-6",14 and 15 and 12 and 9
same,efficiency in generating mutations relative to other agents,[3],at least 10 fold
same,survival,[4]; 0.3 mg/ml ENU,10%
same,survival,[4]; 0.4 mg/ml ENU,less than 5%
same,colonies surviving,"[4]; 0.4 mg/ml ENU, Plate 3, 5 days after plating, plate discarded","Discarded, very few"
same,survival,[4]; 0.5 mg/ml ENU,0%

# Reference: US6835867B1, “Allelic series of genomic modifications in cells” (priority 1998, dated 2004)
